Legend:
Assay type in all cases: cell-based, human
c-jun = experiment: Real Time RT-PCR in SW480 cells, c-jun; settings: 25 μM; for ΔCT c-jun: relative to β-actin
Method: (§1) The RNeasy Midi Kit (Qiagen) was used for RNA extraction and Real Time RT-PCR was performed according to the protocol provided with the SYBR Green PCR Master Mix Kit (Perkin Elmer Biosystems, Shelton, Conn.). The primers used for cyclin D1, axin2, hnkd, c-myc, c-jun, and fra-1 amplifications were: cyclin D1 forward primer:5′-[…]-CCTGCTG-3′ (SEQ ID NO: 32) reverse primer: 5′-[…]-3′ (SEQ ID NO: 33) leading to a product size of approximately 300 bp; axin2 forward primer: 5′-[…] GGAAA-CT-3′ (SEQ ID NO: 34) and reverse primer: 5′-[…]-GAGA-3′ (SEQ ID NO: 35); hnkd forward primer: 5′-[…] TTGCGT-3′ (SEQ ID NO: 36) and the reverse primer: 5′-[…] ACGT-3′ (SEQ ID NO: 37); c-myc forward primer: 5′-GAA-[…] CTGC-3′ (SEQ ID NO: 38) and reverse primer: 5′-[…]-G-3′ (SEQ ID NO: 39); c-jun forward primer: 5′-[…]-3′ (SEQ ID NO: 40) and reverse primer: 5′-[…]-3′ (SEQ ID NO: 41); fra-1 forward primer: 5′-ACC-[…]-[…]-3′ (SEQ ID NO: 42) and reverse primer: 5′-[…]-TT-3′ (SEQ ID NO: 43). β-actin was used for normalization. […]
(§2) 1 μg of mRNA, for each time point, was subjected to Real Time RT-PCR. Expression level of endogenous cyclin D1, c-myc, fibronectin, hnkd, axin2, c-jun, and BMP-4 were measured relative to β-actin. Quantitation of The ΔCycle of Threshold (CT) values was determined by subtracting the average values of each set by the corresponding average values obtained for β-actin. […]
(§3) The cyclin D1 gene is inappropriately expressed in many different tumor types, and is known to be a direct target of the Wnt/β-catenin pathway (Shtutman et al., “The cyclin D1 gene is a target of the beta-catenin/LEF-1 pathway,” Proc. Natl. Acad. Sci. USA 96:5522-27 (1999); Tetsu et al., “Beta-catenin regulates expression of cyclin D1 in colon carcinoma cells,” Nature 398:422-26 (1999)). […] Expression level of endogenous cyclin D1, c-myc, fibronectin, hnkd, axin2, c-jun, and BMP-4 were measured relative to β-actin. Quantitation of The ΔCycle of Threshold (CT) values was determined by subtracting the average values of each set by the corresponding average values obtained for β-actin. […]

fra-1 = experiment: Real Time RT-PCR in SW480 cells, fra-1; settings: 25 μM; for ΔCT fra-1: relative to β-actin
Method: as §1, §2, §3

[1] = test system: caspase-3/7 in CCD18Co cells; experiment: Caspase-3/7 activity assay, normal colonocytes CCD18Co; settings: 25 μM, 24 hours
Method: FIG. 6. • A. COMPOUND 1 arrests cells in G1. FACS analysis was performed on SW480 (lower panel) and HCT116 (upper panel) cells treated for 24 hours with either COMPOUND 1 (25 μM) (right) or control (0.5% DMSO (left). 5.5×10^6 cells were fixed and stained with propidium iodide (PI). G0/G1, S, and G2/M are indicated by arrows. • B. COMPOUND 1 selectively activates caspases in colon carcinoma cell lines. SW480 and HCT116 (left graph) cells (10^5) along with the normal colonocytes, CCD18Co (right graph) were treated with either control (0.5% DMSO) or COMPOUND 1 (25 μM). 24 hours post treatment, cells were lysed and the caspase-3/7 enzymatic activities were measured. Relative fluorescence units (RFU) were calculated by subtracting the unit values of the blank (control, without cells) from the treated samples (COMPOUND 1 or control) and plotted.
SW480, HCT116, and CCD18Co cells were plated at 10^5 cells per well (96-well plates) for 24 hours prior to treatment. 25 μM of COMPOUND 1 or control (0.5% DMSO) was added to each well. 24 hours post treatment, cells were lysed and caspase activity was measured using a caspase-3/7 activity kit (Apo-One Homogeneous caspase-3/7 assay, #G77905, Promega). Relative fluorescence units (RFU) were obtained by subtracting the unit values of the blank (control, without cells) from the experimental measured values. […]

cyclin D1 = experiment: Real Time RT-PCR in SW480 cells, cyclin D1; settings: 25 μM; for ΔCT cyclin D1: relative to β-actin
Method: as §1, §2, §3

## O=C1C(Cc2ccc(O)cc2)N2C(=O)CCN(C(=O)NCc3ccccc3)C2CN1Cc1cccc2ccccc12 (stereo not shown) [COMPOUND 1]
c-jun
  mRNA c-jun (direction): ↑
c-jun; 4 hours
  ΔCT c-jun: 0
c-jun; 24 hours
  ΔCT c-jun: −2.9
fra-1
  mRNA fra-1 (direction): ↑
fra-1; 4 hours
  ΔCT fra-1: −1.0
fra-1; 8 hours
  ΔCT fra-1: −1.4
[1]
  Caspase activation: not in normal colonocytes
Cyclin D1
  mRNA cyclin D1 (direction): ↓
Cyclin D1; 4 hours
  ΔCT cyclin D1: 0.6
Cyclin D1; 24 hours
  ΔCT cyclin D1: 3.1

Source: patent publication US7531320B2, “Modulation of β-catenin/TCF-activated transcription” (priority 2003, dated 2009)
